According to US20240382452A1, “COMPOSITIONS AND DOSAGE FORMS FOR TOPICAL AND TRANSDERMAL DELIVERY OF ACTIVES AND METHODS OF USE” (priority 2021, published 2024):
Where “and” joins values, the source holds several entries; their conditions need not be identical. Equal values may be shown once.

Columns and labels:
[1] = system: Oxyuranus scutellatus venom; assay: Snake venom study, Oxyuranus scutellatus severe neurotoxicity, topical treatment; type: in vivo; conditions: individual mice #1-#4; in 80% DMSO/20% ethanol in <50% 2.5%/2.5% lidocaine/prilocaine cream +/- petrolatum cover
Text: Additional studies used historical controls from earlier studies with venom doses from same lots:
Oxyuranus scutellatus severe neurotoxicity and 3-(5′-benzyl-2′-carbamoyl-[1,1′-biphenyl]-3-yl)-2-methylpropanoic acid as the racemic mixture in 80% DMSO/20% ethanol in <50% 2.5%/2.5% lidocaine/prilocaine cream+/−petrolatum cover (1 each).

[2] = Varespladib DMSO/ethanol pad applied to simulated viper bite on the inventor's calf; type: in vivo, human; conditions: 75 mg/mL in DMSO/ethanol, 2 mL on absorbent pad containing 4% lidocaine; patch applied 24 hours
Description: The free-acid of varespladib […] was dissolved at 100 mg/mL in DMSO, then diluted with ethanol to 75 mg/mL and 2 mL applied to an absorbent pad containing 4% lidocaine and applied to a simulated viper bite on the inventor's calf applied by penetration to 1 cm with 18 g hypodermic needles similar in depth to what would be experienced with a large viper's bite.

Structure (SMILES)	Cessation of breathing [1]	pain, discomfort or redness at wounded area [2]
CC(Cc1cccc(-c2cc(Cc3ccccc3)ccc2C(N)=O)c1)C(=O)O (racemic) [3-(5′-benzyl-2′-carbamoyl-[1,1′-biphenyl]-3-yl)-2-methylpropanoic acid]	64 min and 44 min and 104 min and 111 min	
CCc1c(C(=O)C(N)=O)c2c(OCC(=O)O)cccc2n1Cc1ccccc1 [varespladib]		no pain, discomfort or redness
